{
  "source": "the supplement of paper PMC10307832",
  "assay_in_all_cases": "relative viability (nuclei count vs DMSO), 5 days (fraction); higher = more cells survive",
  "key": {"[1]": {"system": "SK-LU-1", "how_it_was_run": "(§1)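 One day after seeding in 1536-well plates, lung cancer cell lines were dosed by pin tool. Dosing was either single-drug or a fixed anchor-drug dose plus five library-drug doses (not always all listed) in √10 steps. After 5 days, nuclei were stained in one fix-and-stain step and counted on 4× images, and relative viability is the nuclei count of treated wells over that of vehicle wells, given as the median of duplicate plates.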"}, "[2]": {"system": "NCI-H1993", "how_it_was_run": "as §1"}, "[3]": {"system": "HCC-78", "how_it_was_run": "as §1"}, "[4]": {"system": "NCI-H838", "how_it_was_run": "as §1"}, "[5]": {"system": "HCC-15", "how_it_was_run": "as §1"}, "[6]": {"system": "NCI-H2405", "how_it_was_run": "as §1"}, "[7]": {"system": "HCC-366", "how_it_was_run": "as §1"}, "[8]": {"system": "NCI-H2023", "how_it_was_run": "as §1"}, "[9]": {"system": "NCI-H1395", "how_it_was_run": "as §1"}, "[10]": {"system": "COR-L23", "how_it_was_run": "as §1"}, "[11]": {"system": "LC-2-ad", "conditions": "first compound 0.005 µM", "how_it_was_run": "as §1"}},
  "data": [
    {"molecule": "COc1cc2nccc(Oc3ccc(NC(=O)Nc4cc(C)on4)c(Cl)c3)c2cc1OC", "note": "[Tivozanib] + Nc1nc2[nH]cc(CCc3ccc(C(=O)N[C@@H](CCC(=O)O)C(=O)O)cc3)c2c(=O)[nH]1 [Pemetrexed] (partner 0.2 µM)", "values": [
      {"measurement": "relative viability", "setting": "[1]; first compound 0.005 µM", "result": 1},
      {"measurement": "relative viability", "setting": "[1]; first compound 0.01581 µM", "result": 0.928},
      {"measurement": "relative viability", "setting": "[1]; first compound 0.05 µM", "result": 0.997},
      {"measurement": "relative viability", "setting": "[1]; first compound 0.1581 µM", "result": 0.905},
      {"measurement": "relative viability", "setting": "[1]; first compound 0.5 µM", "result": 0.991},
      {"measurement": "relative viability", "setting": "[2]; first compound 0.005 µM", "result": 0.572},
      {"measurement": "relative viability", "setting": "[2]; first compound 0.01581 µM", "result": 0.467},
      {"measurement": "relative viability", "setting": "[2]; first compound 0.05 µM", "result": 0.674},
      {"measurement": "relative viability", "setting": "[2]; first compound 0.1581 µM", "result": 0.499},
      {"measurement": "relative viability", "setting": "[2]; first compound 0.5 µM", "result": 0.662},
      {"measurement": "relative viability", "setting": "[3]; first compound 0.005 µM", "result": 0.925},
      {"measurement": "relative viability", "setting": "[3]; first compound 0.01581 µM", "result": 0.924},
      {"measurement": "relative viability", "setting": "[3]; first compound 0.05 µM", "result": 0.816},
      {"measurement": "relative viability", "setting": "[3]; first compound 0.1581 µM", "result": 0.885},
      {"measurement": "relative viability", "setting": "[3]; first compound 0.5 µM", "result": 0.913},
      {"measurement": "relative viability", "setting": "[4]; first compound 0.005 µM", "result": 0.242},
      {"measurement": "relative viability", "setting": "[4]; first compound 0.01581 µM", "result": 0.253},
      {"measurement": "relative viability", "setting": "[4]; first compound 0.05 µM", "result": 0.252},
      {"measurement": "relative viability", "setting": "[4]; first compound 0.1581 µM", "result": 0.257},
      {"measurement": "relative viability", "setting": "[4]; first compound 0.5 µM", "result": 0.22},
      {"measurement": "relative viability", "setting": "[5]; first compound 0.005 µM", "result": 0.21},
      {"measurement": "relative viability", "setting": "[5]; first compound 0.01581 µM", "result": 0.224},
      {"measurement": "relative viability", "setting": "[5]; first compound 0.05 µM", "result": 0.235},
      {"measurement": "relative viability", "setting": "[5]; first compound 0.1581 µM", "result": 0.226},
      {"measurement": "relative viability", "setting": "[5]; first compound 0.5 µM", "result": 0.238},
      {"measurement": "relative viability", "setting": "[6]; first compound 0.005 µM", "result": 1.05},
      {"measurement": "relative viability", "setting": "[6]; first compound 0.01581 µM", "result": 1.13},
      {"measurement": "relative viability", "setting": "[6]; first compound 0.05 µM", "result": 1.09},
      {"measurement": "relative viability", "setting": "[6]; first compound 0.1581 µM", "result": 1.01},
      {"measurement": "relative viability", "setting": "[6]; first compound 0.5 µM", "result": 0.792},
      {"measurement": "relative viability", "setting": "[7]; first compound 0.005 µM", "result": 0.16},
      {"measurement": "relative viability", "setting": "[7]; first compound 0.01581 µM", "result": 0.192},
      {"measurement": "relative viability", "setting": "[7]; first compound 0.05 µM", "result": 0.162},
      {"measurement": "relative viability", "setting": "[7]; first compound 0.1581 µM", "result": 0.234},
      {"measurement": "relative viability", "setting": "[7]; first compound 0.5 µM", "result": 0.126},
      {"measurement": "relative viability", "setting": "[8]; first compound 0.005 µM", "result": 0.405},
      {"measurement": "relative viability", "setting": "[8]; first compound 0.01581 µM", "result": 0.216},
      {"measurement": "relative viability", "setting": "[8]; first compound 0.05 µM", "result": 0.255},
      {"measurement": "relative viability", "setting": "[8]; first compound 0.1581 µM", "result": 0.224},
      {"measurement": "relative viability", "setting": "[8]; first compound 0.5 µM", "result": 0.211},
      {"measurement": "relative viability", "setting": "[9]; first compound 0.005 µM", "result": 0.89},
      {"measurement": "relative viability", "setting": "[9]; first compound 0.01581 µM", "result": 1.02},
      {"measurement": "relative viability", "setting": "[9]; first compound 0.05 µM", "result": 0.938},
      {"measurement": "relative viability", "setting": "[9]; first compound 0.1581 µM", "result": 0.775},
      {"measurement": "relative viability", "setting": "[9]; first compound 0.5 µM", "result": 0.579},
      {"measurement": "relative viability", "setting": "[10]; first compound 0.005 µM", "result": 0.193},
      {"measurement": "relative viability", "setting": "[10]; first compound 0.01581 µM", "result": 0.192},
      {"measurement": "relative viability", "setting": "[10]; first compound 0.05 µM", "result": 0.203},
      {"measurement": "relative viability", "setting": "[10]; first compound 0.1581 µM", "result": 0.206},
      {"measurement": "relative viability", "setting": "[10]; first compound 0.5 µM", "result": 0.199},
      {"measurement": "relative viability", "setting": "[11]", "result": 0.245}
    ]}
  ]
}
